Earlier results as cited in patent US20130210861A1, “METHODS AND COMPOSITIONS FOR MANAGING CARDIOVASCULAR DISEASE ASSOCIATED WITH CHRONIC KIDNEY DISEASE” (priority 2011, published 2013).
Like-named read-outs stand apart in the source and are kept apart here.

Legend:
[1] = not given; remark: listed apart in the source
[2] = multiple rheumatological cohorts with CVD
[3] = Lumina cohort, southern US
[4] = HCQ use
[5] = patients with inflammatory disorders
[6] = Latin American cohort
[7] = test system: matrix metallo proteinase-9 (MMP-9); conditions: SLE patients

| Structure (SMILES) | atheroprotection (APO E -/- mice) | absorption (200 mg tablet) | elimination half-life (200 mg tablet (155 mg of base)) [days] | plasma protein binding (in vivo) | cardiovascular deaths in patients using HCQ ([1]; 232 patients, 52-month study period, 7 deaths in those never exposed to HCQ) | HR for death from any cause ([1]; Spanish trial cohort, HCQ use) | OR for death [2] | OR for death [3] | OR for metabolic syndrome [4] | OR for vascular events [4] | fasting glucose [5] | OR for death [6] | MMP-9 secretion [7] |
| --- | --- | --- | --- | --- | --- | --- | --- | --- | --- | --- | --- | --- | --- |
| CCN(CC)CCCC(C)Nc1ccnc2cc(Cl)ccc12 (centres unmarked) [Chloroquine] | significant atheroprotection activity | – | – | – | – | – | – | – | – | – | – | – | – |
| CCN(CCO)CCCC(C)Nc1ccnc2cc(Cl)ccc12 (centres unmarked) [HCQ, hydroxychloroquine] | significant atheroprotection | absorbed rapidly and completely | 32 to 50 | moderate | zero | 0.14 | 0.12-0.49 | 0.31 | 0.13 | 0.3 | lowered | 0.62 | inhibited |
